The values below come from BindingDB's records for doi:10.1073/pnas.74.9.3805 (1977).

The assay deals with Gamma-aminobutyric acid receptor subunit alpha-1 (Rattus norvegicus, UniProt P62813).

Each structure is given as a SMILES string. Where “and” joins values, the source holds several entries; their conditions need not be identical. Equal values may be shown once.

Sequence of Gamma-aminobutyric acid receptor subunit alpha-1 (P62813 whole entry): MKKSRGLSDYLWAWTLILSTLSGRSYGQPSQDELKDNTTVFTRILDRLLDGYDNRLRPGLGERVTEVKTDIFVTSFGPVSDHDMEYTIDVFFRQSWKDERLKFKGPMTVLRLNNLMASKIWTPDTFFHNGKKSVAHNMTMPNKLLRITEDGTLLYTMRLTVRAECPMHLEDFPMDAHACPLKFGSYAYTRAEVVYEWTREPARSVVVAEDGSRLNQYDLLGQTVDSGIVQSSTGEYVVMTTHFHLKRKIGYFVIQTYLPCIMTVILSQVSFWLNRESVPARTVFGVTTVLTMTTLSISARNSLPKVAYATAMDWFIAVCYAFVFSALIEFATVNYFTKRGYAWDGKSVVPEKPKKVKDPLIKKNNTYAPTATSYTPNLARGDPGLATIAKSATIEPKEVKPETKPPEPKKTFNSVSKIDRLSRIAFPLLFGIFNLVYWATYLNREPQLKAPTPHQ

Consider `O=C1CN=C(c2ccccc2Cl)c2cc([N+](=O)[O-])ccc2N1` [5-(2-chlorophenyl)-7-nitro-1,3-dihydro-2H-1,4-benzodiazepin-2-one], for which the Ki was 5.08 µM and 2.9 µM and 7.9 µM.
